Reference: patent US20190125888A1, “TARGETED CONJUGATES AND PARTICLES AND FORMULATIONS THEREOF” (priority 2015, published 2019)
Like-named read-outs stand apart in the source and are kept apart here. Where a SMILES comes first, the peptide text is derived from it. Bridges are numbered along the chain shown (N, C = ends). [ ]: non-standard residue; d: D form. The star is where a group is joined. NH(CH2)2SS(DM1) = COc1cc2cc(c1Cl)N(C)C(=O)C[C@H](OC(=O)[C@H](C)N(C)C(=O)CCSSCCN*)[C@]1(C)O[C@H]1[C@H](C)[C@@H]1C[C@@](O)(NC(=O)O1)[C@H](OC)/C=C/C=C(\C)C2; Octanoyl = CCCCCCCC(=O)*

Experiments:
[1] = target: human SSTR2 (Homo sapiens, UniProt P30874); experiment: Radioligand-receptor binding assay, [125I] somatostatin, membranes from SSTR2 expressing CHO-K1 cells
Procedure: These conjugates were also assessed in an in vitro assay evaluating binding to the somatostatin receptor 2 (SSTR2). A radioligand-receptor binding assay was conducted at Eurofins Panlabs (Taiwan) to determine the affinity of conjugates described herein to the SSTR2. The assay measures binding of radiolabeled ligand, [^125I] labeled somatostatin, to human SSTR2 using membrane preparations from SSTR2 expressing CHO-K1 cells. Membranes were incubated with radiolabeled somatostatin (0.03 nM) in the presence of conjugate/compound starting at a dose of 10 uM using 6× serial dilutions to obtain a 10-pt curve. After a four hour incubation, membranes were filtered and washed 3× and counted to determine the remaining [^125I] somatostatin bound to the receptor. IC50 values were determined by a non-linear, least squares regression analysis using MathIQ™ (ID Business Solutions Ltd., UK).

[2] = test system: NCI-H524 (ATCC) human lung cancer cells; type: cell-based
Procedure, shortened: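 NCI-H524 cells (5,000/well) exposed to conjugates for 6 hours, washed, then grown a further 66 hours; ten-point threefold dilutions from 20 μM. Proliferation by CellTiter-Glo versus vehicle; IC50 by four-parameter nonlinear regression, measured with and without octreotide competition.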

[3] = Ligand charge of maytansinoid conjugates; type: physicochemical
[4] = Chrom LogP of maytansinoid conjugates; type: physicochemical
[5] = read-out: H524 IC50 6 h, 6 hours treatment, further 66 hours incubation
[6] = read-out: H524 IC50 with 100 μM octreotide 6 h, with 100 μM octreotide competition, 6 h treatment

human SSTR2, sequence (P30874 whole entry): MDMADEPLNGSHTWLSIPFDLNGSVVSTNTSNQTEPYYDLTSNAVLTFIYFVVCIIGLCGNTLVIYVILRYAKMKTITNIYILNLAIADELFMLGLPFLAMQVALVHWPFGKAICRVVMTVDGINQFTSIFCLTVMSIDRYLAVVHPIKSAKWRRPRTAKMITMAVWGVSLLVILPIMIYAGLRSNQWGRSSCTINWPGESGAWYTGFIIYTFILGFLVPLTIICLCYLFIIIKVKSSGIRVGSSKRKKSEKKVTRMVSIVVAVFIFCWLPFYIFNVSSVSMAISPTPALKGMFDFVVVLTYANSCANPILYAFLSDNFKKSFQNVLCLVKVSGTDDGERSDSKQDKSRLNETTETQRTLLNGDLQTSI

| SMILES | Ki [1] [nM] | IC50 [2, 5] [nM] | IC50 [2, 6] [nM] | Ligand charge [3] | chromatographic logP [4] |
| --- | --- | --- | --- | --- | --- |
| COc1cc2cc(c1Cl)N(C)C(=O)C[C@H](OC(=O)[C@H](C)N(C)C(=O)CCC(C)(C)SSC[C@H](NC(=O)[C@@H]1CSSC[C@H](NC(=O)[C@H](N)Cc3ccccc3)C(=O)N[C@@H](Cc3ccc(O)cc3)C(=O)N[C@H](Cc3c[nH]c4ccccc34)C(=O)N[C@@H](CCCCN)C(=O)N[C@@H]([C@@H](C)O)C(=O)N1)C(N)=O)[C@]1(C)O[C@H]1[C@H](C)[C@@H]1C[C@@](O)(NC(=O)O1)[C@H](OC)/C=C/C=C(\C)C2 [Conjugate 4] | 0.075 | 78 | 348 | +2 | 2.21 |
| COc1cc2cc(c1Cl)N(C)C(=O)C[C@H](OC(=O)[C@H](C)N(C)C(=O)CCSSC(C)(C)[C@H](NC(=O)[C@@H]1CSSC[C@H](NC(=O)[C@@H](Cc3ccccc3)NC(=O)NCc3ccccc3)C(=O)N[C@@H](Cc3ccc(O)cc3)C(=O)N[C@H](Cc3c[nH]c4ccccc34)C(=O)N[C@@H](CCCCN)C(=O)N[C@@H]([C@@H](C)O)C(=O)N1)C(N)=O)[C@]1(C)O[C@H]1[C@H](C)[C@@H]1C[C@@](O)(NC(=O)O1)[C@H](OC)/C=C/C=C(\C)C2 [Conjugate 7] | 0.025 | 4.7 | 181 | +1 | 2.6 |
| COc1cc2cc(c1Cl)N(C)C(=O)C[C@H](OC(=O)[C@H](C)N(C)C(=O)CCSSC(C)(C)[C@H](NC(=O)[C@@H]1CSSC[C@H](NC(=O)[C@@H](Cc3ccccc3)NC(=O)Nc3ccccc3)C(=O)N[C@@H](Cc3ccc(O)cc3)C(=O)N[C@H](Cc3c[nH]c4ccccc34)C(=O)N[C@@H](CCCCN)C(=O)N[C@@H]([C@@H](C)O)C(=O)N1)C(N)=O)[C@]1(C)O[C@H]1[C@H](C)[C@@H]1C[C@@](O)(NC(=O)O1)[C@H](OC)/C=C/C=C(\C)C2 [Conjugate 11] | 0.034 | 6.1 | 232 | +1 | 2.98 |
| COc1cc2cc(c1Cl)N(C)C(=O)C[C@H](OC(=O)[C@H](C)N(C)C(=O)CCSSC(C)(C)[C@H](NC(=O)[C@@H]1CSSC[C@H](NC(=O)[C@@H](Cc3ccccc3)NCc3ccccc3)C(=O)N[C@@H](Cc3ccc(O)cc3)C(=O)N[C@H](Cc3c[nH]c4ccccc34)C(=O)N[C@@H](CCCCN)C(=O)N[C@@H]([C@@H](C)O)C(=O)N1)C(N)=O)[C@]1(C)O[C@H]1[C@H](C)[C@@H]1C[C@@](O)(NC(=O)O1)[C@H](OC)/C=C/C=C(\C)C2 [Conjugate 12] | 0.02 | 19.5 | 331 | +2 | 2.57 |
| CCNC(=O)N[C@H](Cc1ccccc1)C(=O)N[C@H]1CSSC[C@@H](C(=O)N[C@H](C(N)=O)C(C)(C)SSCCC(=O)N(C)[C@@H](C)C(=O)O[C@H]2CC(=O)N(C)c3cc(cc(OC)c3Cl)C/C(C)=C/C=C/[C@@H](OC)[C@@]3(O)C[C@H](OC(=O)N3)[C@@H](C)[C@@H]3O[C@@]23C)NC(=O)[C@H]([C@@H](C)O)NC(=O)[C@H](CCCCN)NC(=O)[C@@H](Cc2c[nH]c3ccccc23)NC(=O)[C@H](Cc2ccc(O)cc2)NC1=O [Conjugate 13] | 0.018 | 6.5 | 340 | +1 | 2.67 |
| COc1cc2cc(c1Cl)N(C)C(=O)C[C@H](OC(=O)[C@H](C)N(C)C(=O)CCSSC(C)(C)[C@H](NC(=O)[C@@H]1CSSC[C@H](NC(=O)[C@@H](Cc3ccccc3)NS(=O)(=O)Cc3ccc(C(F)(F)F)cc3)C(=O)N[C@@H](Cc3ccc(O)cc3)C(=O)N[C@H](Cc3c[nH]c4ccccc34)C(=O)N[C@@H](CCCCN)C(=O)N[C@@H]([C@@H](C)O)C(=O)N1)C(N)=O)[C@]1(C)O[C@H]1[C@H](C)[C@@H]1C[C@@](O)(NC(=O)O1)[C@H](OC)/C=C/C=C(\C)C2 [Conjugate 14] | 0.041 | 14 | 331 | +1 | 3.23 |
| CCCCCCCC(=O)N[C@H](Cc1ccccc1)C(=O)N[C@H]1CSSC[C@@H](C(=O)NCCSSCCC(=O)N(C)[C@@H](C)C(=O)O[C@H]2CC(=O)N(C)c3cc(cc(OC)c3Cl)C/C(C)=C/C=C/[C@@H](OC)[C@@]3(O)C[C@H](OC(=O)N3)[C@@H](C)[C@@H]3O[C@@]23C)NC(=O)[C@H]([C@@H](C)O)NC(=O)[C@H](CCCCN)NC(=O)[C@@H](Cc2c[nH]c3ccccc23)NC(=O)[C@H](Cc2ccc(O)cc2)NC1=O [Conjugate 21] (Octanoyl-[dF]CY[dW]KTC-{NH(CH2)2SS(DM1)}; disulfide 2-7) | 1.29 |  |  | +1 | 3.48 |
| COc1cc2cc(c1Cl)N(C)C(=O)C[C@H](OC(=O)[C@H](C)N(C)C(=O)CCSSC[C@H](NC(=O)[C@@H]1CSSC[C@H](NC(=O)[C@@H](Cc3ccccc3)NC(=O)NC3CCCCC3)C(=O)N[C@@H](Cc3ccc(O)cc3)C(=O)N[C@H](Cc3c[nH]c4ccccc34)C(=O)N[C@@H](CCCCN)C(=O)N[C@@H]([C@@H](C)O)C(=O)N1)C(N)=O)[C@]1(C)O[C@H]1[C@H](C)[C@@H]1C[C@@](O)(NC(=O)O1)[C@H](OC)/C=C/C=C(\C)C2 [Conjugate 25] | 0.11 | 32 | 123 | +1 | 2.94 |
| COc1cc2cc(c1Cl)N(C)C(=O)C[C@H](OC(=O)[C@H](C)N(C)C(=O)CCSSC[C@H](NC(=O)[C@@H]1CSSC[C@H](NC(=O)[C@@H](Cc3ccccc3)NC(=O)NCc3ccccc3)C(=O)N[C@@H](Cc3ccc(O)cc3)C(=O)N[C@H](Cc3c[nH]c4ccccc34)C(=O)N[C@@H](CCCCN)C(=O)N[C@@H]([C@@H](C)O)C(=O)N1)C(N)=O)[C@]1(C)O[C@H]1[C@H](C)[C@@H]1C[C@@](O)(NC(=O)O1)[C@H](OC)/C=C/C=C(\C)C2 [Conjugate 28] | 0.057 | 6.1 | 31 | +1 | 2.51 |
| CCNC(=O)N[C@H](Cc1ccccc1)C(=O)N[C@H]1CSSC[C@@H](C(=O)N[C@@H](CSSCCC(=O)N(C)[C@@H](C)C(=O)O[C@H]2CC(=O)N(C)c3cc(cc(OC)c3Cl)C/C(C)=C/C=C/[C@@H](OC)[C@@]3(O)C[C@H](OC(=O)N3)[C@@H](C)[C@@H]3O[C@@]23C)C(=O)NCC)NC(=O)[C@H]([C@@H](C)O)NC(=O)[C@H](CCCCN)NC(=O)[C@@H](Cc2c[nH]c3ccccc23)NC(=O)[C@H](Cc2ccc(O)cc2)NC1=O [Conjugate 30] | 0.071 | 2.4 | 27 | +1 | 2.79 |
| COc1cc2cc(c1Cl)N(C)C(=O)C[C@H](OC(=O)[C@H](C)N(C)C(=O)CCSSC[C@H](NC(=O)[C@@H]1CSSC[C@H](NC(=O)[C@@H](Cc3ccccc3)NS(C)(=O)=O)C(=O)N[C@@H](Cc3ccc(O)cc3)C(=O)N[C@H](Cc3c[nH]c4ccccc34)C(=O)N[C@@H](CCCCN)C(=O)N[C@@H]([C@@H](C)O)C(=O)N1)C(N)=O)[C@]1(C)O[C@H]1[C@H](C)[C@@H]1C[C@@](O)(NC(=O)O1)[C@H](OC)/C=C/C=C(\C)C2 [Conjugate 34] | 0.18 | 13 | 83 | +1 | 2.57 |
| COc1cc2cc(c1Cl)N(C)C(=O)C[C@H](OC(=O)[C@H](C)N(C)C(=O)CCSSC[C@H](NC(=O)[C@@H]1CSSC[C@H](NC(=O)[C@@H](Cc3ccccc3)NC(=O)NCCC(F)(F)C(F)(F)C(F)(F)C(F)(F)C(F)(F)C(F)(F)C(F)(F)C(F)(F)F)C(=O)N[C@@H](Cc3ccc(O)cc3)C(=O)N[C@H](Cc3c[nH]c4ccccc34)C(=O)N[C@@H](CCCCN)C(=O)N[C@@H]([C@@H](C)O)C(=O)N1)C(N)=O)[C@]1(C)O[C@H]1[C@H](C)[C@@H]1C[C@@](O)(NC(=O)O1)[C@H](OC)/C=C/C=C(\C)C2 [Conjugate 40] | 3.51 |  |  | +1 | 4 |
| CCCCCCNC(=O)[C@@H](NC(=O)[C@@H]1CSSC[C@H](NC(=O)[C@@H](Cc2ccccc2)NC(=O)NCCSSCCC(=O)N(C)[C@@H](C)C(=O)O[C@H]2CC(=O)N(C)c3cc(cc(OC)c3Cl)C/C(C)=C/C=C/[C@@H](OC)[C@@]3(O)C[C@H](OC(=O)N3)[C@@H](C)[C@@H]3O[C@@]23C)C(=O)N[C@@H](Cc2ccc(O)cc2)C(=O)N[C@H](Cc2c[nH]c3ccccc23)C(=O)N[C@@H](CCCCN)C(=O)N[C@@H]([C@@H](C)O)C(=O)N1)[C@@H](C)O [Conjugate 52] |  | 23 | 167 | +1 | 3.24 |
| CCNC(=O)[C@@H](NC(=O)[C@@H]1CSSC[C@H](NC(=O)[C@@H](Cc2ccccc2)NC(=O)NCCSSCCC(=O)N(C)[C@@H](C)C(=O)O[C@H]2CC(=O)N(C)c3cc(cc(OC)c3Cl)C/C(C)=C/C=C/[C@@H](OC)[C@@]3(O)C[C@H](OC(=O)N3)[C@@H](C)[C@@H]3O[C@@]23C)C(=O)N[C@@H](Cc2ccc(O)cc2)C(=O)N[C@H](Cc2c[nH]c3ccccc23)C(=O)N[C@@H](CCCCN)C(=O)N[C@@H]([C@@H](C)O)C(=O)N1)[C@@H](C)O [Conjugate 53] |  | 42 | 86 | +1 | 2.45 |
